Here are results for 13 compounds from patent US20230158025A1 (UNIVERSITY OF UTAH RESEARCH FOUNDATION, priority 2020, published 2023).

The nature of data set [1]: PAMPA permeability. The conditions noted are these: PAMPA. A general note: In PAMPA a lipid-coated filter parts donor from acceptor wells.
Data set [2] deals with recombinant human GALK1 (Homo sapiens, UniProt P51570). Kind of data set: hGALK1 biochemical activity assay (Kinase-Glo Plus, ATP depletion). A digest of the protocol:
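Turnover is measured as ATP depletion by Kinase-Glo Plus luminescence after a 1 h room-temperature reaction. Compounds span 11 concentrations, 57.4 μM–0.97 nM, in final 20 mM HEPES pH 8.0 with 5 mM MgCl2. The substrate solution held 35 μM ATP; the added solution held 5 nM human or mouse GALK1 and 100 μM galactose.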

A short description of data set [3]: rat microsomal stability (RLM). As to conditions: microsomal stability half-life.
A short description of data set [4]: aqueous kinetic solubility. The conditions noted are these: aqueous kinetic solubility.
For data set [5], the target named is recombinant mouse GALK1 (Mus musculus, UniProt Q9R0N0). Kind of data set: mGALK1 biochemical activity assay (Kinase-Glo Plus, ATP depletion). Summed up:
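Recombinant GALK1 (5 nM) with 100 μM galactose; GALK1 turnover read as ATP depletion by Kinase-Glo Plus luminescence. Reaction ran 1 h at room temperature before detection reagent was added.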

Setting [6] is: Tables 2-15, 35 μM ATP, 100 μM galactose, 1 h, bracketed figure after some values (e.g. −1.2) is undefined and not reported, read-out: hGALK IC50.
[7] abbreviates: Tables 2-15, 35 μM ATP, 100 μM galactose, 1 h, bracketed figure after some values is undefined and not reported, read-out: mGALK IC50.
Setting [8] is: recombinant mouse GALK1, Kinase-Glo Plus ATP depletion, read-out: mGALK.
The mark [9] stands for this setting: recombinant human GALK1, Kinase-Glo Plus ATP depletion, read-out: hGALK.
Setting [10] is: recombinant human GALK1, Kinase-Glo Plus ATP depletion, bracketed figure in the cell, e.g. (−1.2), is not defined in the text shown, read-out: hGALK.
Where [11] appears, read: recombinant mouse GALK1, Kinase-Glo Plus ATP depletion, bracketed figure in the cell, e.g. (−1.2), is not defined in the text shown, read-out: mGALK.

Where two headings read alike, the source gives them in different places. Where only a bound is given, the exact number is not on record here.

recombinant human GALK1, sequence (P51570 whole entry): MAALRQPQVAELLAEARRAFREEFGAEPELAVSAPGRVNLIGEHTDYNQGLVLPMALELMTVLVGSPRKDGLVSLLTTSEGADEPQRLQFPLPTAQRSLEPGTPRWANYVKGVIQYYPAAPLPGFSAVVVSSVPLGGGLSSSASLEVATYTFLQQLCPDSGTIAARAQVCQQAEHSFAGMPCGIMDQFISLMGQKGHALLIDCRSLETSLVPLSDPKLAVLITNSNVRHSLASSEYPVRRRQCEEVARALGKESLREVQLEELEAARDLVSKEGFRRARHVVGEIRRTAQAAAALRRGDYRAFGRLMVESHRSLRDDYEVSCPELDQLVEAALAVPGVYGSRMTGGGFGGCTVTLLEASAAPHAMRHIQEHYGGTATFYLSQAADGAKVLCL
recombinant mouse GALK1, sequence (Q9R0N0 whole entry): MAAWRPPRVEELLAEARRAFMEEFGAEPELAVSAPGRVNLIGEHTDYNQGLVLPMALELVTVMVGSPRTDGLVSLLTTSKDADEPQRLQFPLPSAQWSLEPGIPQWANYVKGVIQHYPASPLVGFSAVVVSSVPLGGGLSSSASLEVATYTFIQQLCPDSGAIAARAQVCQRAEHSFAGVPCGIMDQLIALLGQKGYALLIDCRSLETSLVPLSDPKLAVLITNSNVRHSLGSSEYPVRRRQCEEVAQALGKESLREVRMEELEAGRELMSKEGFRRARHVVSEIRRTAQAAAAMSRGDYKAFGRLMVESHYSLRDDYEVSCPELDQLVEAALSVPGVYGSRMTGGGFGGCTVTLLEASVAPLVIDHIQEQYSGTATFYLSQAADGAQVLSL

For `CC1=C(C(=O)NCc2ccc(C(=O)O)cc2)C(c2ccccc2Cl)N=C(Nc2nc3ccccc3o2)N1` (centres unmarked) [Compound 225, 4-((2-(benzo[d]oxazol-2-ylamino)-4-(2-chlorophenyl)-6-methyl-1,4-dihydropyrimidine-5-carboxamido)methyl)benzoic acid], the “Perm. (1 × 10^−6 cm/sec)” value in data set [1] is listed as <1 1 × 10^−6 cm/sec. The IC50 in data set [2] (setting [6]) was determined as 3.43 µM; in data set [5] (setting [7]), 10.9 µM; in data set [5] (setting [8]), 10.9 µM. For the same compound, the “Metab. Stabil. (m)” value in data set [3] is greater than 30 m. In addition, the “Sol.” value in data set [4] is 47.0 µg/mL.

For `CC1=C(C(=O)NCc2cccc(C(=O)O)c2)C(c2ccccc2Cl)N=C(Nc2nc3ccccc3o2)N1` (centres unmarked) [Compound 226, 3-((2-(benzo[d]oxazol-2-ylamino)-4-(2-chlorophenyl)-6-methyl-1,4-dihydropyrimidine-5-carboxamido)methyl)benzoic acid], the “Perm. (1 × 10^−6 cm/sec)” value in data set [1] is on record as <1.3 1 × 10^−6 cm/sec. Further, the IC50 in data set [2] (setting [9]) turned out to be 7.69 µM; in data set [5] (setting [8]), 19.3 µM. For the same compound, in data set [3], the “Metab. Stabil. (m)” value is on record as greater than 30 m. The “Sol.” value in data set [4] stood at 60.6 µg/mL.

As to `CC1=C(C(=O)NCc2cccc(CO)c2)C(c2ccccc2Cl)N=C(Nc2nc3ccccc3o2)N1` (centres unmarked) [Compound 227, 2-(benzo[d]oxazol-2-ylamino)-4-(2-chlorophenyl)-N-(3-(hydroxymethyl)benzyl)-6-methyl-1,4-dihydropyrimidine-5-carboxamide], the “Perm. (1 × 10^−6 cm/sec)” value in data set [1] is recorded as 868.8 1 × 10^−6 cm/sec. Further, the IC50 in data set [2] (setting [9]) came out at 4.85 µM; in data set [5] (setting [7]), 12.2 µM; in data set [5] (setting [8]), 12.2 µM. The “Metab. Stabil. (m)” value in data set [3] stood at 6.574 m. In addition, the “Sol.” value in data set [4] was less than 1 µg/mL.

For the compound `CC1=C(C(=O)NCc2ccc(CO)cc2)C(c2ccccc2Cl)N=C(Nc2nc3ccccc3o2)N1` (centres unmarked) [Compound 228, 2-(benzo[d]oxazol-2-ylamino)-4-(2-chlorophenyl)-N-(4-(hydroxymethyl)benzyl)-6-methyl-1,4-dihydropyrimidine-5-carboxamide], the “Perm. (1 × 10^−6 cm/sec)” value in data set [1] is listed as 867.3 1 × 10^−6 cm/sec. In addition, the IC50 was 6.85 µM in data set [2] (setting [6]), 15.3 µM in data set [5] (setting [7]) and 15.3 µM in data set [5] (setting [8]). The “Metab. Stabil. (m)” value in data set [3] was 13.8241 m. For the same compound, the “Sol.” value in data set [4] is less than 1 µg/mL.

With `CC1=C(C(=O)NCc2ccccc2CO)C(c2ccccc2Cl)N=C(Nc2nc3ccccc3o2)N1` (centres unmarked) [Compound 229, 2-(benzo[d]oxazol-2-ylamino)-4-(2-chlorophenyl)-N-(2-(hydroxymethyl)benzyl)-6-methyl-1,4-dihydropyrimidine-5-carboxamide], in data set [1], the “Perm. (1 × 10^−6 cm/sec)” value is 1362.3 1 × 10^−6 cm/sec. Moreover, the IC50 in data set [2] (setting [6]) was 6.11 µM; in data set [5] (setting [7]), 15.3 µM; in data set [5] (setting [8]), 15.3 µM. Moreover, the “Metab. Stabil. (m)” value in data set [3] is on record as 5.0859 m. The “Sol.” value in data set [4] is less than 1 µg/mL.

For `CC1=C(C(=O)NCc2cn(C)cn2)[C@H](c2ccccc2Cl)N=C(Nc2nc3ccccc3o2)N1` [Compound 235, (R)-2-(benzo[d]oxazol-2-ylamino)-4-(2-chlorophenyl)-6-methyl-N-((1-methyl-1H-imidazol-4-yl)methyl)-1,4-dihydropyrimidine-5-carboxamide], the “Perm. (1 × 10^−6 cm/sec)” value in data set [1] was 866.5 1 × 10^−6 cm/sec. The IC50 in data set [2] (setting [6]) is 3.06 µM; in data set [2] (setting [9]) it was 3.06 µM; in data set [5] (setting [7]), 4.32 µM; in data set [5] (setting [8]), 4.32 µM. The “Metab. Stabil. (m)” value in data set [3] is listed as 5.621 m. In addition, the “Sol.” value in data set [4] was determined as 46.1 µg/mL.

As to `CC1=C(C(=O)NCCN(C)C)C(c2ccccc2Cl)N=C(Nc2nc3ccccc3o2)N1` (centres unmarked) [Compound 237], the “Perm. (1 × 10^−6 cm/sec)” value in data set [1] was >1227 1 × 10^−6 cm/sec. Also, the IC50 stood at 19.3 µM in data set [2] (setting [6]), 19.3 µM in data set [2] (setting [9]), 15.3 µM in data set [5] (setting [7]) and 15.3 µM in data set [5] (setting [8]). Further, the “Metab. Stabil. (m)” value in data set [3] was greater than 30 m. The “Sol.” value in data set [4] is greater than 67 µg/mL.

Turning to `CC1=C(C(=O)NCc2cnn(C)c2)C(c2ccccc2Cl)N=C(Nc2nc3ccccc3o2)N1` (centres unmarked) [Compound 238, 2-(benzo[d]oxazol-2-ylamino)-4-(2-chlorophenyl)-6-methyl-N-((1-methyl-1H-pyrazol-4-yl)methyl)-1,4-dihydropyrimidine-5-carboxamide], the “Perm. (1 × 10^−6 cm/sec)” value in data set [1] is 807.7 1 × 10^−6 cm/sec. Also, the IC50 stood at 1.37 µM in data set [2] (setting [6]), 12.2 µM in data set [5] (setting [7]) and 12.2 µM in data set [5] (setting [8]). In addition, the “Metab. Stabil. (m)” value in data set [3] amounted to 15.67 m. For the same compound, the “Sol.” value in data set [4] turned out to be 24.2 µg/mL.

`CC1=C(S(C)(=O)=O)C(c2ccccc2Cl)N=C(Nc2nc3ccccc3o2)N1` (centres unmarked) [Compound 243, N-(4-(2-chlorophenyl)-6-methyl-5-(methylsulfonyl)-1,4-dihydropyrimidin-2-yl)benzo[d]oxazol-2-amine]: in data set [1], the “Perm. (1 × 10^−6 cm/sec)” value is reported as 42.78 1 × 10^−6 cm/sec. Further, the IC50 in data set [2] (setting [9]) stood at 13.7 µM; in data set [5] (setting [8]), 19.3 µM. Also, the “Metab. Stabil. (m)” value in data set [3] stood at 9.37 m. The “Sol.” value in data set [4] is less than 1 µg/mL.

As for `O/N=C1\CCCC2=C1C(c1ccccc1Cl)N=C(Nc1nc3ccccc3o1)N2` (centres unmarked) [Compound 244, (E)-2-(benzo[d]oxazol-2-ylamino)-4-(2-chlorophenyl)-4,6,7,8-tetrahydroquinazolin-5(1H)-one oxime], the “Perm. (1 × 10^−6 cm/sec)” value in data set [1] is on record as 244.29 1 × 10^−6 cm/sec. Further, the figures for the IC50 in data set [2] (setting [10]) and in data set [5] (setting [11]) were 17.2 µM and 10.9 µM, respectively. In addition, the “Metab. Stabil. (m)” value in data set [3] (minutes) stood at 5.48 m. Besides, the “Sol.” value in data set [4] is less than 1 µg/mL.

In the case of `O=C(Nc1nncs1)C1=C(C(F)(F)F)NC(Nc2nc3ccccc3o2)=NC1c1ccccc1Cl` (centres unmarked) [Compound 246, 2-(benzo[d]oxazol-2-ylamino)-4-(2-chlorophenyl)-N-(1,3,4-thiadiazol-2-yl)-6-(trifluoromethyl)-1,4-dihydropyrimidine-5-carboxamide], the “Perm. (1 × 10^−6 cm/sec)” value in data set [1] was 715.1 1 × 10^−6 cm/sec. Moreover, the results for the IC50 in data set [2] (setting [10]) and in data set [5] (setting [11]) were 13.7 µM and 17.2 µM, respectively. Moreover, in data set [3] (minutes), the “Metab. Stabil. (m)” value is reported as greater than 30 m. In addition, the “Sol.” value in data set [4] was determined as 21.9 µg/mL.

Take `CC(C)CC1=C(C(=O)Nc2nncs2)C(c2ccccc2Cl)N=C(Nc2nc3ccccc3o2)N1` (centres unmarked) [Compound 248, 2-(benzo[d]oxazol-2-ylamino)-4-(2-chlorophenyl)-6-isobutyl-N-(1,3,4-thiadiazol-2-yl)-1,4-dihydropyrimidine-5-carboxamide]: in data set [1], the “Perm. (1 × 10^−6 cm/sec)” value is 42.7 1 × 10^−6 cm/sec. The figures for the IC50 in data set [2] (setting [10]) and in data set [5] (setting [11]) were 5.44 µM and 17.2 µM, respectively. Moreover, the “Metab. Stabil. (m)” value in data set [3] (minutes) is listed as greater than 30 m. Further, the “Sol.” value in data set [4] was less than 1 µg/mL.

`O=C(Nc1nncs1)C1=C(c2cnccn2)NC(Nc2nc3ccccc3o2)=NC1c1ccccc1Cl` (centres unmarked) [Compound 249, 2-(benzo[d]oxazol-2-ylamino)-4-(2-chlorophenyl)-6-(pyrazin-2-yl)-N-(1,3,4-thiadiazol-2-yl)-1,4-dihydropyrimidine-5-carboxamide]: the “Perm. (1 × 10^−6 cm/sec)” value in data set [1] was 60.3 1 × 10^−6 cm/sec. Besides, the IC50 in data set [2] (setting [10]) is 3.85 µM; in data set [5] (setting [11]), 21.7 µM. Further, in data set [3] (minutes), the “Metab. Stabil. (m)” value is on record as greater than 30 m. Besides, in data set [4], the “Sol.” value came to 2.1 µg/mL.
